Results: ChEMBL document CHEMBL5346941, “Design, synthesis and evaluation of novel monoamine oxidase B (MAO-B) inhibitors with improved pharmacokinetic properties for Parkinson's disease” (Eur J Med Chem, 2023)
The source made the active and inactive calls. The rule behind the calls is not given here.

Tests used:
[1] = Protein binding in mouse plasma at 1 uM incubated for 5 hrs by LC-MS/MS based rapid equilibrium dialysis method; format: ADME, cell-free; details: read-out: PPB (converted)
[2] = Metabolic stability in rat liver microsomes assessed as half life at 1 uM incubated for 60 mins in presence of NADPH by LC-MS/MS analysis; format: ADME, Microsome
[3] = Metabolic stability in human liver microsomes assessed as half life at 1 uM incubated for 60 mins in presence of NADPH by LC-MS/MS analysis; format: ADME, Microsome
[4] = Metabolic stability in rat liver microsomes assessed as intrinsic clearance at 1 uM incubated for 60 mins in presence of NADPH by LC-MS/MS analysis; format: ADME, Microsome; details: read-out: CLH
[5] = Drug concentration in Sprague-Dawley rat brain at 5 mg/kg, ip measured after 60 mins by LC-MS/MS analysis; format: ADME, organism-based; details: read-out: Ct
[6] = Clearance in fasted ICR mouse at 2 mg/kg, iv measured for 24 hrs; format: ADME, organism-based; details: in vivo
[7] = Clearance in fasted Sprague-Dawley rat at 1 mg/kg, iv measured for 24 hrs; format: ADME, organism-based; details: in vivo
[8] = Cmax in fasted ICR mouse at 5 mg/kg, IG measured for 24 hrs; format: ADME, organism-based; design: dose 5 mg/kg, time 24 hrs, route ig; details: in vivo, po
[9] = Cmax in fasted Sprague-Dawley rat at 5 mg/kg, IG measured for 24 hrs; format: ADME, organism-based; design: dose 5 mg/kg, time 24 hrs, route ig; details: in vivo, po
[10] = Apparent permeability across apical to basolateral side in MDCKII-MDR1 cells at 10 uM incubated for 30 mins by LC-MS/MS analysis; format: ADME, cell-based, Canis lupus familiaris; details: dog, MDCK-MDR1
[11] = Metabolic stability in monkey liver microsomes assessed as intrinsic clearance at 1 uM incubated for 60 mins in presence of NADPH by LC-MS/MS analysis; format: ADME, Macaca mulatta, Microsome; details: rhesus monkey, read-out: CLH
[12] = Drug concentration in Sprague-Dawley rat brain at 5 mg/kg, ip measured after 120 mins by LC-MS/MS analysis; format: ADME, organism-based; details: read-out: Ct
[13] = AUC (0 to t) in fasted ICR mouse at 5 mg/kg, IG measured for 24 hrs; format: ADME, organism-based; design: dose 5 mg/kg, time 24 hrs, route ig; details: in vivo, po
[14] = AUC (0 to t) in fasted Sprague-Dawley rat at 1 mg/kg, iv measured for 24 hrs; format: ADME, organism-based; design: dose 1 mg/kg, time 24 hrs, route iv; details: in vivo
Mus musculus [15] = assay: Anti-parkinson activity in C57BL/6 mouse model of MPTP-induced dopamine deficits assessed as increase in dopamine concentration in striatum at 1 to 3 mg/kg, ip pretreated for 30 mins followed by MPTP addition and measured after 5 days by HPLC analysis; format: functional, organism-based; details: dose 1-3 mg/kg, time 120.5 hrs
[16] = Elimination half life in fasted Sprague-Dawley rat at 5 mg/kg, IG measured for 24 hrs; format: ADME, organism-based; details: in vivo, po, read-out: beta t1/2 (converted)
[17] = Drug concentration in Sprague-Dawley rat plasma at 5 mg/kg, ip measured after 120 mins by LC-MS/MS analysis; format: ADME, organism-based
[18] = Elimination half life in fasted ICR mouse at 5 mg/kg, IG measured for 24 hrs; format: ADME, organism-based; details: in vivo, po, read-out: beta t1/2 (converted)
Mus musculus [19] = assay: Anti-parkinson activity in MPTP-induced dopamine deficit C57BL/6 mouse model assessed as increase in dopamine concentration in striatum at 3 to 10 mg/kg, ip pretreated with MPTP for 4 hrs followed by compound administration for 5 times once every 4 hrs further incubated with L-dopa at 50 mg/kg for 30 mins prior to last dose and measured after 30 mins by HPLC analysis; format: functional, organism-based; details: dose 3-10 mg/kg, time 16.5 hrs
CYP2B6 = target: T1, CYP2B6 (Homo sapiens, UniProt P20813); assay: Inhibition of CYP2B6 in human liver microsomes using bupropion as substrate at 10 uM incubated for 10 mins in presence of NADPH by LC-MS/MS analysis relative to control; format: ADME, Microsome; details: probe bupropion
T1 sequence (P20813 whole entry): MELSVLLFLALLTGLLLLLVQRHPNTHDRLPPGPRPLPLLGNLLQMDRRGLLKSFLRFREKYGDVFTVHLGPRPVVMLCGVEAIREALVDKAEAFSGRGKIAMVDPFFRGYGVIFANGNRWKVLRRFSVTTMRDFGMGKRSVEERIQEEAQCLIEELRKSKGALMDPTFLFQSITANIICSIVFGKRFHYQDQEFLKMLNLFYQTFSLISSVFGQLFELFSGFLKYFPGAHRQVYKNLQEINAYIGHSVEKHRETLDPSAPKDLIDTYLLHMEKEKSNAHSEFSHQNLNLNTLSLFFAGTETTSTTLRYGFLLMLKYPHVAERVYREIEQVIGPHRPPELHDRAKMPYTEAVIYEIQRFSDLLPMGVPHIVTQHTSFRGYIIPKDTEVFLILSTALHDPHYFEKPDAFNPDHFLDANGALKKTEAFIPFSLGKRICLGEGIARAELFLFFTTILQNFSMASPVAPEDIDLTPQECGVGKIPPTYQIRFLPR

[20] = Drug concentration in Sprague-Dawley rat plasma at 5 mg/kg, ip measured after 60 mins by LC-MS/MS analysis; format: ADME, organism-based
CYP1A2 = target: T2, CYP1A2 (Homo sapiens, UniProt P05177); assay: Inhibition of CYP1A2 in human liver microsomes using ethoxyresorufin as substrate at 10 uM incubated for 10 mins in presence of NADPH by LC-MS/MS analysis relative to control; format: ADME, Microsome; details: probe ethoxyresorufin
T2 sequence (P05177 whole entry): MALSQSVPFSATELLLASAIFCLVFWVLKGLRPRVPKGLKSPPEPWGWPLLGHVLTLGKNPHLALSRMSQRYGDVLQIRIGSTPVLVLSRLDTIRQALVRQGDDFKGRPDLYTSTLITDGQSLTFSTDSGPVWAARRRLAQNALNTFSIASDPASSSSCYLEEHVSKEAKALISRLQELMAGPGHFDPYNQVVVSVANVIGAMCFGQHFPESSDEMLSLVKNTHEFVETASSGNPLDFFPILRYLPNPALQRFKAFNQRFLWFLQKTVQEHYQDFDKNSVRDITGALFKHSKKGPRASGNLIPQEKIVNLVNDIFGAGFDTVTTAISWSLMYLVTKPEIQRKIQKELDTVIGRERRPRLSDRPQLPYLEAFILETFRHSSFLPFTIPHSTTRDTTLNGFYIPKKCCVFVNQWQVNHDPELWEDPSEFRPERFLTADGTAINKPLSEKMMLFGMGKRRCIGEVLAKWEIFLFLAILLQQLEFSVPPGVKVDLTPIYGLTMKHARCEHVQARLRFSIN

[21] = Cmax in fasted ICR mouse at 2 mg/kg, iv measured for 24 hrs; format: ADME, organism-based; design: time 24 hrs, dose 2 mg/kg, route iv; details: in vivo
[22] = Cmax in fasted Sprague-Dawley rat at 1 mg/kg, iv measured for 24 hrs; format: ADME, organism-based; design: dose 1 mg/kg, time 24 hrs, route iv; details: Sprague-Dawley, in vivo, read-out: Cmax
[23] = Metabolic stability in mouse liver microsomes assessed as intrinsic clearance at 1 uM incubated for 60 mins in presence of NADPH by LC-MS/MS analysis; format: ADME, Microsome; details: read-out: CLH
[24] = AUC (0 to t) in fasted Sprague-Dawley rat at 5 mg/kg, IG measured for 24 hrs; format: ADME, organism-based; design: dose 5 mg/kg, time 24 hrs, route ig; details: in vivo, po
[25] = Metabolic stability in human liver microsomes assessed as intrinsic clearance at 1 uM incubated for 60 mins in presence of NADPH by LC-MS/MS analysis; format: ADME, Microsome; details: read-out: CLH
[26] = Ratio of drug concentration in Sprague-Dawley brain to plasma at 5 mg/kg, ip measured after 15 mins by LC-MS/MS analysis; format: ADME, organism-based; details: rat, read-out: BPR

fraction unbound at 5 h, 1 µM [1]: 0.0066
half-life at 1 µM [2]: 1.48 h
half-life at 1 µM [3]: 10.4 h
CLint scaled at 1 µM [4]: 10.1 mL/min/kg
concentration at 1 h [5]: 8750 ng/g
clearance [6]: 11 mL/min/kg
clearance [7]: 54.2 mL/min/kg
Cmax [8]: 913 ng/mL
Cmax [9]: 436 ng/mL
Papp A→B at 0.5 h, 10 µM [10]: 8.78 ×10⁻⁶ cm/s
CLint scaled at 1 µM [11]: 4.1 mL/min/kg
concentration at 2 h [12]: 7090 ng/g
AUC(0-t) at 24 h [13]: 7950 ng·h/mL
AUC(0-t) at 24 h [14]: 305 ng·h/mL
half-life [16]: 4.22 h
concentration at 2 h [17]: 458 ng/mL
half-life [18]: 3.8 h
inhibition at 10 min, 10 µM (CYP2B6): 41.2%
concentration at 1 h [20]: 540 ng/mL
inhibition at 10 min, 10 µM (CYP1A2): 32.6%
Cmax [21]: 900 ng/mL
Cmax [22]: 273 ng/mL
CLint scaled at 1 µM [23]: 6.9 mL/min/kg
AUC(0-t) at 24 h [24]: 2280 ng·h/mL
CLint scaled at 1 µM [25]: 2.5 mL/min/kg
Kp at 0.25 h [26]: 10.4
Structure (SMILES): NC(=O)[C@@H]1C[C@H](F)CN1Cc1ccc2oc(-c3ccc(F)cc3)cc2c1
Activity (Mus musculus [15]): Active
Activity (Mus musculus [19]): Active
